Results published in patent US8623859B2, “Bradykinin B1 antagonists” (Evotec AG, priority 2008, dated 2014).
Structures can show the parent of a compound that is named as a salt.

Molecular target: T1, human B1 (Homo sapiens, UniProt P46663)
T1 construct: host or cells: CHO-K1
T1 sequence (P46663 1-353): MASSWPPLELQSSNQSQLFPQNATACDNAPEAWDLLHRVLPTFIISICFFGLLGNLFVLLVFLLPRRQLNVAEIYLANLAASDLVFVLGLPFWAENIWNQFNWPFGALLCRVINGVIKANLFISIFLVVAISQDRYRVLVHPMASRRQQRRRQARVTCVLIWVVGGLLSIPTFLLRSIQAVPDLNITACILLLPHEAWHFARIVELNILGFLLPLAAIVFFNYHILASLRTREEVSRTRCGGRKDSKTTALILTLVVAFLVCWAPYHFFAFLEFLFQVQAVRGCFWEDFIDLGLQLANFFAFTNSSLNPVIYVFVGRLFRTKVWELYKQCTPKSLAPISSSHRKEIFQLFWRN
Assay: Calcium flux assay for Bradykinin B1 antagonist, CHO-K1 cell line expressing human B1
Assay type: cell-based
Conditions: CHO-K1 cells expressing human B1, agonist Lys-(Des-Arg)-Bradykinin, read-out: Potency (IC50 value against human B1)
Outline: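 CHO-K1 cells expressing human B1, loaded with 5 μM Fluo-4AM (2 h, 37° C) in HEPES buffer pH 7.4 with probenecid and 0.1% BSA, were preincubated 30 min at 25° C with compound (8 concentrations, triplicate, 1% DMSO) before B1 agonist addition. Ca2+ fluorescence monitored at 538 nm; background-normalized integrated values plotted against log antagonist concentration.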

IC50 [µM] | Structure (SMILES)
0.1 to 1 | COc1cc(C)c(S(=O)(=O)N(Cc2nc(C(=O)N3CCN(Cc4cncn4C)CC3)co2)C2CC2)c(C)c1 [Ex 251, N-Cyclopropyl-4-methoxy-2,6-dimethyl-N-{[4-({4-[(1-methyl-1H-imidazol-5-yl)methyl]piperazin-1-yl}carbonyl)-1,3-oxazol-2-yl]methyl}benzenesulfonamide]
< 0.01 | COc1cc(C)c(S(=O)(=O)N(C)Cc2nnc(C(=O)N3CCN(Cc4cnc5ccccc5c4)CC3)o2)c(C)c1 [Ex 296, 4-Methoxy-N,2,6-trimethyl-N-[(5-{[4-(quinolin-3-ylmethyl)piperazin-1-yl]carbonyl}-1,3,4-oxadiazol-2-yl)methyl]benzenesulfonamide]
0.1 to 1 | CN(Cc1cc(C(=O)NCc2ccc(C3=NCCN3)cc2)co1)S(=O)(=O)c1c(Cl)cccc1Cl [Ex 26, 5-({[(2,6-dichlorophenyl)sulfonyl](methyl)amino}methyl)-N-[4-(4,5-dihydro-1H-imidazol-2-yl)benzyl]furan-3-carboxamide]
0.01 to 0.1 | COc1cc(C)c(S(=O)(=O)N(Cc2cc(C(=O)NCc3cccc(CN4CCCC4)c3)co2)C2CC2)c(C)c1 [Ex 54, 5-({Cyclopropyl[(4-methoxy-2,6-dimethylphenyl)sulfonyl]amino}methyl)-N-[3-(pyrrolidin-1-ylmethyl)benzyl]furan-3-carboxamide]
< 0.01 | CN(Cc1ccc(C2=NCCN2)cc1)C(=O)c1coc(CN(C2CC2)S(=O)(=O)c2c(Cl)cc(Br)cc2Cl)c1 [Ex 123, 5-({[(4-Bromo-2,6-dichlorophenyl)sulfonyl](cyclopropyl)amino}methyl)-N-[4-(4,5-dihydro-1H-imidazol-2-yl)benzyl]-N-methylfuran-3-carboxamide trifluoroacetate]
< 0.01 | COc1cc(C)c(S(=O)(=O)N(C)Cc2nc(C(=O)N(C)Cc3ccc(CN4CCC(OC)CC4)cc3)co2)c(C)c1 [Ex 167, 2-({[(4-Methoxy-2,6-dimethylphenyl)sulfonyl](methyl)amino}methyl)-N-{4-[(4-methoxypiperidin-1-yl)methyl]benzyl}-N-methyl-1,3-oxazole-4-carboxamide]
0.1 to 1 | COc1cc(C)c(S(=O)(=O)N(C)Cc2nnc(C(=O)N3CCN(CC4CCN(C)CC4)CC3)s2)c(C)c1 [Ex 333, 4-Methoxy-N,2,6-trimethyl-N-{[5-({4-[(1-methylpiperidin-4-yl)methyl]piperazin-1-yl}carbonyl)-1,3,4-thiadiazol-2-yl]methyl}benzenesulfonamide]
0.01 to 0.1 | COc1cc(C)c(S(=O)(=O)N(C)Cc2nc(C(=O)N(C)Cc3nc(CN4CCCC4)cs3)co2)c(C)c1 [Ex 202, 2-({[(4-Methoxy-2,6-dimethylphenyl)sulfonyl](methyl)amino}methyl)-N-methyl-N-{[4-(pyrrolidin-1-ylmethyl)-1,3-thiazol-2-yl]methyl}-1,3-oxazole-4-carboxamide trifluoroacetate]
0.01 to 0.1 | CN(CCc1ccc(C2=NCCN2)cc1)C(=O)c1coc(CN(C2CC2)S(=O)(=O)c2c(Cl)cc(Cl)cc2Cl)n1 [Ex 215, 2-({Cyclopropyl[(2,4,6-trichlorophenyl)sulfonyl]amino}methyl)-N-{2-[4-(4,5-dihydro-1H-imidazol-2-yl)phenyl]ethyl}-N-methyl-1,3-oxazole-4-carboxamide trifluoroacetate]
0.01 to 0.1 | COc1cc(C)c(S(=O)(=O)N(C)Cc2cc(C(=O)NCc3ccc(C4=NCCN4)cc3)co2)c(C)c1 [Ex 6, N-[4-(4,5-dihydro-1H-imidazol-2-yl)benzyl]-5-({[(4-methoxy-2,6-dimethylphenyl)sulfonyl](methyl)amino}methyl)furan-3-carboxamide]
0.01 to 0.1 | COc1cc(C)c(S(=O)(=O)N(C)Cc2cc(C(=O)NCc3ccc(CN4CCC4)cc3)co2)c(C)c1 [Ex 97, N-[4-(Azetidin-1-ylmethyl)benzyl]-5-({[(4-methoxy-2,6-dimethylphenyl)sulfonyl](methyl)amino}methyl)furan-3-carboxamide trifluoroacetate]
0.1 to 1 | COc1cc(C)c(S(=O)(=O)N(C)C(C)c2cc(C(=O)NCCc3ccc(C4=NCCN4)cc3)co2)c(C)c1 (stereo not shown) [Ex 85, N-{2-[4-(4,5-dihydro-1H-imidazol-2-yl)phenyl]ethyl}-5-(1-{[(4-methoxy-2,6-dimethylphenyl)sulfonyl](methyl)amino}ethyl)furan-3-carboxamide trifluoroacetamide]
0.1 to 1 | COc1cc(C)c(S(=O)(=O)N(Cc2nc(C(=O)N3CCC(C(=O)N4CCN(C)CC4)CC3)co2)C2CC2)c(C)c1 [Ex 229, N-Cyclopropyl-4-methoxy-2,6-dimethyl-N-{[4-({4-[(4-methylpiperazin-1-yl)carbonyl]piperidin-1-yl}carbonyl)-1,3-oxazol-2-yl]methyl}benzenesulfonamide trifluoroacetate]
0.01 to 0.1 | CCN1CCN(CCCNC(=O)c2coc(CN(C3CC3)S(=O)(=O)c3c(C)cc(OC)cc3C)n2)CC1 [Ex 242, 2-({Cyclopropyl[(4-methoxy-2,6-dimethylphenyl)sulfonyl]amino}methyl)-N-[3-(4-ethylpiperazin-1-yl)propyl]-1,3-oxazole-4-carboxamide trifluoroacetate]
< 0.01 | COc1cc(C)c(S(=O)(=O)N(C)Cc2cc(C(=O)N(C)Cc3nc(CN4CCCC4)cs3)co2)c(C)c1 [Ex 138, 5-({[(4-Methoxy-2,6-dimethylphenyl)sulfonyl](methyl)amino}methyl)-N-methyl-N-{[4-(pyrrolidin-1-ylmethyl)-1,3-thiazol-2-yl]methyl}furan-3-carboxamide]
0.1 to 1 | COc1cc(C)c(S(=O)(=O)N(C)Cc2cc(C(=O)N3CCN(CCN4CCCC4)CC3)co2)c(C)c1 [Ex 39, 4-methoxy-N,2,6-trimethyl-N-[(4-{[4-(2-pyrrolidin-1-ylethyl)piperazin-1-yl]carbonyl}furan-2-yl)methyl]benzenesulfonamide]
0.01 to 0.1 | COc1cc(C)c(S(=O)(=O)N(Cc2cc(C(=O)N(C)Cc3cccc(CN4CCCC4)c3)co2)C2CC2)c(C)c1 [Ex 55, 5-({Cyclopropyl[(4-methoxy-2,6-dimethylphenyl)sulfonyl]amino}methyl)-N-methyl-N-[3-(pyrrolidin-1-ylmethyl)benzyl]furan-3-carboxamide]
0.01 to 0.1 | COc1cc(C)c(S(=O)(=O)N(C)Cc2cc(C(=O)NCc3ccc(C4=NCC(C)(C)N4)cc3)co2)c(C)c1 [Ex 93, N-[4-(5,5-Dimethyl-4,5-dihydro-1H-imidazol-2-yl)benzyl]-5-({[(4-methoxy-2,6-dimethylphenyl)sulfonyl](methyl)amino}methyl)furan-3-carboxamide trifluoroacetate]
0.1 to 1 | COc1cc(C)c(S(=O)(=O)N(C)Cc2nnc(C(=O)N3CCN(Cc4ccc(C(F)(F)F)nc4)CC3)o2)c(C)c1 [Ex 262, 4-Methoxy-N,2,6-trimethyl-N-({5-[(4-{[6-(trifluoromethyl)pyridin-3-yl]methyl}piperazin-1-yl)carbonyl]-1,3,4-oxadiazol-2-yl}methyl)benzenesulfonamide trifluoroacetate]
0.1 to 1 | COc1cc(C)c(S(=O)(=O)N(Cc2nc(C(=O)N3CCN(Cc4ccnc(N5CCCC5)c4)CC3)co2)C2CC2)c(C)c1 [Ex 256, N-Cyclopropyl-4-methoxy-2,6-dimethyl-N-{[4-({4-[(2-pyrrolidin-1-ylpyridin-4-yl)methyl]piperazin-1-yl}carbonyl)-1,3-oxazol-2-yl]methyl}benzenesulfonamide]
0.1 to 1 | COc1cc(C)c(S(=O)(=O)N(Cc2cnc(C(=O)N3CCN(CC4CCN(C)CC4)CC3)o2)C2CC2)c(C)c1 [Ex 245, N-Cyclopropyl-4-methoxy-2,6-dimethyl-N-{[2-({4-[(1-methylpiperidin-4-yl)methyl]piperazin-1-yl}carbonyl)-1,3-oxazol-5-yl]methyl}benzenesulfonamide]
0.01 to 0.1 | COc1cc(C)c(S(=O)(=O)N(Cc2noc(C(=O)N(C)Cc3nc(CN4CCCC4)cs3)n2)C2CC2)c(C)c1 [Ex 307, 3-({Cyclopropyl[(4-methoxy-2,6-dimethylphenyl)sulfonyl]amino}methyl)-N-methyl-N-{[4-(pyrrolidin-1-ylmethyl)-1,3-thiazol-2-yl]methyl}-1,2,4-oxadiazole-5-carboxamide trifluoroacetate]
< 0.01 | COc1cc(C)c(S(=O)(=O)N(Cc2nc(C(=O)N(C)Cc3ccc(CN4CCC(N(C)C)C4)cc3)co2)C2CC2)c(C)c1 (stereo not shown) [Ex 190, 2-({Cyclopropyl[(4-methoxy-2,6-dimethylphenyl)sulfonyl]amino}methyl)-N-(4-{[3-(dimethylamino)pyrrolidin-1-yl]methyl}benzyl)-N-methyl-1,3-oxazole-4-carboxamide]
0.1 to 1 | CCN(Cc1cc(C(=O)N(C)Cc2ccc(CN3CCCC3)cc2)co1)S(=O)(=O)c1c(C)cc(OC)cc1C [Ex 102, 5-({Ethyl[(4-methoxy-2,6-dimethylphenyl)sulfonyl]amino}methyl)-N-methyl-N-[4-(pyrrolidin-1-ylmethyl)benzyl]furan-3-carboxamide trifluoroacetate]
< 0.01 | COc1cc(C)c(S(=O)(=O)N(Cc2nc(C(=O)N(C)Cc3ccc(CN4CCC(C(=O)N(C)C)C4)cc3)co2)C2CC2)c(C)c1 (stereo not shown) [Ex 186, 2-({Cyclopropyl[(4-methoxy-2,6-dimethylphenyl)sulfonyl]amino}methyl)-N-(4-{[3-(dimethylcarbamoyl)pyrrolidin-1-yl]methyl}benzyl)-N-methyl-1,3-oxazole-4-carboxamide]
